How the values were obtained:
[1] = biological target: T1, Inhibitor of nuclear factor kappa-B kinase subunit alpha (Homo sapiens) (UniProt O15111); assay: Inhibition of full length human His-tagged IKK1 expressed in baculovirus expression system at 10 uM by Z'-LYTE assay
T1 sequence (whole entry): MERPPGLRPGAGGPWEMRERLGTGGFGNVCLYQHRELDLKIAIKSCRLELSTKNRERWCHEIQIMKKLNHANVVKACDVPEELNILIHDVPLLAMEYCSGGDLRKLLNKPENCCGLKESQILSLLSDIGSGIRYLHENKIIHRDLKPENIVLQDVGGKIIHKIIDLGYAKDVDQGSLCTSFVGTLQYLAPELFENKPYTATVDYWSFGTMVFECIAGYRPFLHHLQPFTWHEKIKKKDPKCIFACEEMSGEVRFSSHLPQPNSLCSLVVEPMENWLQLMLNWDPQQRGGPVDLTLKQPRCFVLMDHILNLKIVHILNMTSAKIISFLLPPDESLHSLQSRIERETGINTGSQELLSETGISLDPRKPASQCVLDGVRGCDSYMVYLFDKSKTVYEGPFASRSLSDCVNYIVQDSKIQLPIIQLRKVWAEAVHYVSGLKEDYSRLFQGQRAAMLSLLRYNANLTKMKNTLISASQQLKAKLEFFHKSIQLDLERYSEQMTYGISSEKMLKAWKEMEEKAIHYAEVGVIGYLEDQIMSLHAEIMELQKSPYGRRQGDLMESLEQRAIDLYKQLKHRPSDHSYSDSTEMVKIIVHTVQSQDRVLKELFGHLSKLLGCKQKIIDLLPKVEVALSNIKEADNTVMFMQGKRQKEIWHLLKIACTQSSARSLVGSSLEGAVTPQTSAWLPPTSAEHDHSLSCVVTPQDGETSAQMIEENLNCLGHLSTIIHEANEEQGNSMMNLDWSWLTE

[2] = biological target: T2, Inhibitor of nuclear factor kappa-B kinase subunit beta (Homo sapiens) (UniProt O14920); assay: Inhibition of full length human GST-tagged IKK2 expressed in baculovirus expression system at 10 uM by Z'-LYTE assay
T2 sequence (whole entry): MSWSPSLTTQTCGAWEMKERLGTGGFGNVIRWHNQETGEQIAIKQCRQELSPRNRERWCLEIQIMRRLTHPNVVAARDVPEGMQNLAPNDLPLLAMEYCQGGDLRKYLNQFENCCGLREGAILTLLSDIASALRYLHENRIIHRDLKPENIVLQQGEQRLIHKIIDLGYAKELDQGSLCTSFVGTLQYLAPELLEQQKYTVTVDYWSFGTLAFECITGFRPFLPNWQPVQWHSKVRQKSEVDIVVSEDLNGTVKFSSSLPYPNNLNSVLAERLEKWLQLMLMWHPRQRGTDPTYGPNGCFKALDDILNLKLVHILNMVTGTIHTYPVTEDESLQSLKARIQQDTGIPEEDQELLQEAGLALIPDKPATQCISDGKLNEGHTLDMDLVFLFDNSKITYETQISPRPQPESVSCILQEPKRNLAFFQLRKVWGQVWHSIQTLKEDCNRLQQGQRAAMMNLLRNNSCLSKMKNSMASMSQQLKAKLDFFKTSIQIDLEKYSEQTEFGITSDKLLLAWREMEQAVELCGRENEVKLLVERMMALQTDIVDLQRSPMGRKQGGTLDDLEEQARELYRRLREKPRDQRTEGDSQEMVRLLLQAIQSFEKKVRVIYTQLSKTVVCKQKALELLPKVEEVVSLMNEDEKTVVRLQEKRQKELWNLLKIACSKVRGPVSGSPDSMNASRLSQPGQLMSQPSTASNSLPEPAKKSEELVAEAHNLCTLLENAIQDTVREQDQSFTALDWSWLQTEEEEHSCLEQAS

THP-1 = assay: Anti-inflammatory activity in human THP1 cells assessed as inhibition of LPS/INFgamma-induced TNFalpha production at 10 uM relative to control; assay type: functional

Row | SMILES | inhibition [1] [%] | inhibition [2] [%] | inhibition at 10 µM (THP-1) [%]
1 | CNc1nc2ccccc2n2cncc12 | 3 | 1 | –
2 | CNc1nc2cc(C)ccc2n2ncc(Br)c12 | -6 | 7 | –
3 | CNc1nc2cc(C)ccc2n2nccc12 | -4 | 4 | –
4 | CNc1nc2ccc(C)cc2n2c(C)cnc12 | – | – | 45
5 | Cc1ccc2c(c1)nc(N(C)C)c1ccnn12 | -7 | 4 | –
6 | CNc1nccn2c(Br)cnc12 | 5 | 6 | –
7 | Cc1ccc2nc(NCCN)c3ncc(C)n3c2c1 | 8 | 64 | –
8 | CNc1nc2ccccc2n2c(Br)nc(Br)c12 | -1 | – | –
9 | Nc1nccn2c(Br)cnc12 | 7 | 10 | –
10 | Nc1nccn2c(-c3ccc(O)c(O)c3)cnc12 | 20 | -8 | –
11 | CNc1nc2ccccc2n2nccc12 | 5 | -2 | –
12 | CNc1nc2ccc(C)cc2n2c(Br)cnc12 | – | – | 40
13 | CN(C)c1nc2ccccc2n2nccc12 | -10 | 17 | –
14 | CNc1nc2ccc(C)cc2n2nccc12 | -9 | 19 | –
15 | CNc1nc2ccccc2n2ncc(Br)c12 | 0 | 1 | –
16 | CNc1nc2ccccc2n2cnc(Br)c12 | -5 | 10 | –
17 | CNc1nc2ccccc2n2c(Br)ncc12 | 0 | 16 | –
18 | COc1ccc(-c2cnc3c(N)nccn23)cc1OC | -2 | -4 | –
19 | CNc1nc2ccccc2n2c(C)cnc12 | -3 | 5 | –
20 | CNc1nccn2c(C)cnc12 | -1 | -4 | –
21 | CNc1nc2ccc(C)cc2n2ncc(Br)c12 | -10 | -3 | –
22 | CNc1nccn2c(-c3ccc(OC)c(OC)c3)cnc12 | -9 | -1 | –
23 | Cc1ccc2nc(N(C)C)c3ccnn3c2c1 | – | 1 | –
24 | CNc1nccn2c(-c3ccc(O)c(O)c3)cnc12 | 5 | 18 | –

Source: ChEMBL document CHEMBL4190291, “Imidazo[1,2-a]pyrazine, Imidazo[1,5-a]quinoxaline and Pyrazolo[1,5-a]quinoxaline derivatives as IKK1 and IKK2 inhibitors” (2017)
